{
  "source": "patent US10195185B2",
  "about": "“3-(1H-imidazo[4,5-C]pyridin-2-yl)-1H-pyrazolo[4,3-B]pyridines and therapeutic uses thereof” (Samumed, LLC, priority 2015, dated 2019)",
  "format_in_all_cases": "cell-based",
  "key": {"[1]": {"tested_on": "Primary human fibroblasts derived from IPF patients (LL29 cells) treated with TGF-β1", "test": "Inhibition of the fibrotic process: αSMA staining in TGF-β1 treated fibroblasts", "conditions": "Fibroblast, 96 h, LL29 fibroblasts treated with TGF-β1, 4 days", "from_the_text": "Representative compounds were screened using primary human fibroblasts (derived from IPF patients) treated with TGF-β1 to determine their ability to inhibit the fibrotic process.\nPrimary human fibroblasts derived from IPF patients (LL29 cells) [^1Xiaoqiu Liu, et. al., “Fibrotic Lung Fibroblasts Show Blunted Inhibition by cAMP Due to Deficient cAMP Response Element-Binding Protein Phosphorylation”, Journal of Pharmacology and Experimental Therapeutics (2005), 315(2), 678-687; ^2Watts, K. L., et. al., “RhoA signaling modulates cyclin D1 expression in human lung fibroblasts; implications for idiopathic pulmonary fibrosis”, Respiratory Research (2006), 7(1), 88] were obtained from American Type Culture Collection (ATCC) and expanded in F12 medium supplemented with 15% Fetal Bovine Serum and Penicillin/Streptomycin.\nEach compound was dissolved in DMSO as a 10 mM stock and used to prepare compound source plates. Serial dilution (1:2, 11-point dose-response curves from 10 μM to 1.87 nM) and compound transfer was performed using the ECHO 550 (Labcyte, Sunnyvale, Calif.) into 384-well clear bottom assay plates (Greiner Bio-One) with appropriate DMSO backfill for a final DMSO concentration of 0.1%. LL29 cells are plated at 1,500 cells/well in 80 μL/well F12 medium supplemented with 1% Fetal Bovine Serum. One hour after addition of the cells, TGF-β1 (Peprotech; 20 ng/mL) was added to the plates to induce fibrosis (ref. 1 and 2 above). Wells treated with TGF-β1 and containing DMSO were used as controls. Cells were incubated at 37° C. and 5% CO2 for 4 days. Following incubation for 4 days, SYTOX green nucleic acid stain (Life Technologies [Thermo Fisher Scientific]) was added to the wells at a final concentration of 1 μM and incubated at room temperature for 30 min. Cells were then fixed using 4% formaldehyde (Electron Microscopy Sciences), washed 3 times with PBS followed by blocking and permeabilization using 3% Bovine Serum Albumin (BSA; Sigma) and 0.3% Triton X-100 (Sigma) in PBS. Cells were then stained with antibody specific to α-smooth muscle actin (αSMA; Abcam) (ref. 1 and 2 above) in 3% Bovine Serum Albumin (BSA; Sigma) and 0.3% Triton X-100 (Sigma) in PBS, and incubated overnight at 4° C. Cells were then washed 3 times with PBS, followed by incubation with Alexa Flor-647 conjugated secondary antibody (Life Technologies [Thermo Fisher Scientific]) and DAPI at room temperature for 1 hour. Cells were then washed 3 times with PBS and plates were sealed for imaging. αSMA staining was imaged by excitation at 630 nm and emission at 665 nm and quantified using the Compartmental Analysis program on the CellInsight CX5 (Thermo Scientific). Dead or apoptotic cells were excluded from analysis based on positive SYTOX green staining. % of total cells positive for αSMA were counted in each well and normalized to the average of 11 wells treated with TGF-β1 on the same plate using Dotmatics' Studies Software. The normalized averages (fold change over untreated) of 3 replicate wells for each compound concentration were used to create dose-responses curves and EC50 values were calculated using non-linear regression curve fit in the Dotmatics' Studies Software. For EC50 of >10 μM, the percent inhibition at 10 μM is provided."}, "[2]": {"tested_on": "Wnt activity (Wnt-responsive human Sp5 promoter, TCF/LEF binding sites) in SW480 colon carcinoma cells", "test": "Wnt activity screening assay: Sp5-Luc luciferase reporter gene in SW480 cells", "conditions": "10-point dose-response from 10 μM, incubated overnight", "from_the_text": "The screening assay for Wnt activity is described as follows. Reporter cell lines can be generated by stably transducing cancer cell lines (e.g., colon cancer) or primary cells (e.g., IEC-6 intestinal cells) with a lentiviral construct that includes a Wnt-responsive promoter driving expression of the firefly luciferase gene.\nSW480 colon carcinoma cells were transduced with a lentiviral vector expressing luciferase with a human Sp5 promoter consisting of a sequence of eight TCF/LEF binding sites. SW480 cells stably expressing the Sp5-Luc reporter gene and a hygromycin resistance gene were selected by treatment with 150 μg/mL of hygromycin for 7 days. These stably transduced SW480 cells were expanded in cell culture and used for all further screening activities. Each compound was dissolved in DMSO as a 10 mM stock and used to prepare compound source plates. Serial dilution (1:3, 10-point dose-response curves starting from 10 μM) and compound transfer was performed using the ECHO 550 (Labcyte, Sunnyvale, Calif.) into 384-well white solid bottom assay plates (Greiner Bio-One) with appropriate DMSO backfill for a final DMSO concentration of 0.1%. For Sp5-Luc reporter gene assays, the cells were plated at 4,000 cells/well in 384-well plates with medium containing 1% fetal bovine serum and incubated overnight at 37° C. and 5% CO2. Following incubation, 20 μl of BrightGlo luminescence reagent (Promega) was added to each well of the 384-well assay plates. The plates were placed on an orbital shaker for 2 min and then luminescence was quantified using the Envision (Perkin Elmer) plate reader. Readings were normalized to DMSO only treated cells, and normalized activities were utilized for EC50 calculations using the dose-response log (inhibitor) vs. response-variable slope (four parameters) nonlinear regression feature available in GraphPad Prism 5.0 (or Dotmatics). For EC50 of >10 μM, the percent inhibition at 10 μM is provided."}, "SW480 colon cancer cells": {"tested_on": "SW480 colon cancer cells", "test": "Cell viability assay (CellTiter-Blue), four days", "conditions": "Homo sapiens, 96 h, CellTiter-Blue cell viability", "method": "Representative compounds were screened using the following assay procedure to assess the effect on cell viability as described below.\nEach compound was dissolved in DMSO as a 10 mM stock and used to prepare compound source plates. Serial dilution (1:3, 8-point dose-response curves from 10 μM to 0.0045 μM) and compound transfer was performed using the ECHO 550 (Labcyte, Sunnyvale, Calif.) into 96-well clear bottom, black-walled plates (Corning-Costar).\nApproximately 2×10^3 SW480 colon cancer cells were seeded into each well and allowed to incubate in the presence or absence of compound for four days at 37° C./5% CO2. Eight replicates of DMSO-treated cells served as controls and cells treated with compound were performed in duplicate.\nAfter incubation, 20 μL of CellTiter-Blue (Promega) was added to each well allowed to incubate for approximately 3 hours. This reagent was a buffered solution which contains resazurin, metabolically active cells were able to reduce rezarurin (blue) into resorufin (pink) which was highly fluorescent. This measured fluorescence was used as a readout for cell viability.\nAfter incubation, the plates were read at Ex 560 nm Em 590 nm (Cytation 3, BioTek). Dose-response curves were generated and EC50 concentration values were calculated using non-linear regression curve fit in the GraphPad Prism (San Diego, Calif.) or Dotmatics' Studies Software (Bishops Stortford, UK). For EC50 of >10 μM, the percent inhibition at 10 μM is provided."}, "[3]": {"tested_on": "IL-6 in human monocyte cell line (THP-1 cells)", "test": "IL-6 inhibition in LPS-stimulated THP-1 cells (HTRF)", "conditions": "IL-6 in LPS-stimulated THP-1 cells, HTRF", "method": "Human monocyte cell line (THP-1 cells; Catalog # TIB-202, ATCC, Manassas, Va.) were cultured in Roswell Park Memorial Institute (RPMI) 1640 Medium (Catalog #21870-100, Buffalo, N.Y.) with 1% L-glutamine, 1% HEPES, 1% Sodium Pyruvate, 2% Sodium Bicarbonate supplemented with 100 units/mL penicillin, 50 μg/mL streptomycin, 2-mercaptoethanol (0.05 mM) [basal medium] and 10% fetal bovine serum (Catalog #16140089, Life Technologies, Carlsbad, Calif.) at 37° C. and 5% CO2.\nTHP-1 cells were cultured in basal media with 1% FBS for 24 hours before the start of the assay. Each compound was dissolved in DMSO as a 10 mM stock and used to prepare compound source plates. Serial dilution (1:3, 10-point dose-response curves starting from 10 μM) and compound transfer was performed using the ECHO 550 (Labcyte, Sunnyvale, Calif.) into 384-well white low volume assay plates (Greiner Bio-One) with appropriate DMSO backfill for a final DMSO concentration of 0.1%. THP-1 cells were plated at 5000 cells/well in the 384-well plates and incubated at 37° C. for 2 h. 500 ng/mL of LPS was added after 2 hours and cells were incubated for another 22 hours at 37° C. Plates were spun in a centrifuge for 1 minute at […] and a mixture of anti-IL6 XL665, and anti-IL6 Cryptate diluted in reconstitution buffer (Cisbio Inc.) was added to each well. Following incubation for 3 hrs at room temperature, Homogeneous Time-Resolved Fluorescence (HTRF) was measured using the Envision (Perkin Elmer) at 665 nm and […]. The ratio of fluorescence at 665 nm to 620 nm was used as a readout for IL6 quantification. All samples were processed in duplicate. Readings were normalized to DMSO treated cells and normalized activities were utilized for EC50 calculations using the dose-response log (inhibitor) vs. response-variable slope (four parameters) nonlinear regression feature available in GraphPad Prism 5.0 (or Dotmatics). For EC50 of >10 μM, the percent inhibition at 10 μM is provided."}},
  "data": [
    {"smiles": "CN(C)CCNc1cc(F)cc(-c2nccc3[nH]c(-c4n[nH]c5ccc(-c6cncc(OCc7ccccc7)c6)nc45)nc23)c1", "note": "[Compound 790, N^1-(3-(2-(5-(5-(Benzyloxy)pyridin-3-yl)-1H-pyrazolo[4,3-b]pyridin-3-yl)-1H-imidazo[4,5-c]pyridin-4-yl)-5-fluorophenyl)-N^2,N^2-dimethylethane-1,2-diamine]", "values": [
      {"measurement": "EC50", "setting": "[1]", "result": 3170, "unit": "nM"},
      {"measurement": "EC50", "setting": "[2]", "result": 1110, "unit": "nM"},
      {"measurement": "EC50", "setting": "SW480 colon cancer cells", "result": 1570, "unit": "nM"},
      {"measurement": "EC50", "setting": "[3]", "result": 38, "unit": "nM"}
    ]},
    {"smiles": "c1ccc(-c2ccc3[nH]nc(-c4nc5cnccc5[nH]4)c3n2)nc1", "note": "[Compound 280, 3-(1H-Imidazo[4,5-c]pyridin-2-yl)-5-(pyridin-2-yl)-1H-pyrazolo[4,3-b]pyridine]", "values": [
      {"measurement": "EC50", "setting": "[1]", "result": 7230, "unit": "nM"},
      {"measurement": "EC50", "setting": "[2]", "result": 1320, "unit": "nM"},
      {"measurement": "EC50", "setting": "SW480 colon cancer cells", "result": 5720, "unit": "nM"},
      {"measurement": "EC50", "setting": "[3]", "result": 1900, "unit": "nM"}
    ]},
    {"smiles": "c1ccc(CNCc2cncc(-c3ccc4[nH]nc(-c5nc6c(-c7cccnc7)nccc6[nH]5)c4n3)c2)cc1", "note": "[Compound 108, N-Benzyl-1-(5-(3-(4-(pyridin-3-yl)-1H-imidazo[4,5-c]pyridin-2-yl)-1H-pyrazolo [4,3-b]pyridin-5-yl)pyridin-3-yl)methanamine]", "values": [
      {"measurement": "EC50", "setting": "[1]", "result": 9060, "unit": "nM"},
      {"measurement": "EC50", "setting": "[2]", "result": 6780, "unit": "nM"},
      {"measurement": "EC50", "setting": "SW480 colon cancer cells", "result": 2580, "unit": "nM"},
      {"measurement": "EC50", "setting": "[3]", "result": 123, "unit": "nM"}
    ]}
  ]
}
